Assay results reported in patent publication US5366983A, “Use of quaternary ammonium compounds to remove salmonella contamination from meat products” (The Board of Trustees of The University of Arkansas, priority 1992, dated 1994).
Where “and” joins values, the source holds several entries; their conditions need not be identical. Equal entries are not always repeated. Where two headings read alike, the source gives them in different places.

Assays:
[1] = test system: Salmonella typhimurium ATCC 14028
Method: Salmonella typhimurium ATCC 14028 was used for these studies and prepared as follows. A 16 hour culture in nutrient broth (BBL) was centrifuged at 15,000 rpm for 10 minutes at 4° C. The deposit was washed once with 0.04 M potassium phosphate buffer (PPB) at pH 7.0 and resuspended in fresh PPB to contain 1-2×10^9 bacteria/ml. Samples (1.0 ml) of this suspension were added into a 1.8 ml Eppendorff vial and centrifuged at 14,000 rpm for 4 minutes. The pellets were first suspended in 1.0 ml of PPB or 1.0 ml of an appropriate concentration of test chemical solution, and then centrifuged and washed with the buffer under the same conditions. After washing, the samples of bacterial suspensions were appropriately diluted in PPB. Duplicate 0.05 ml samples were withdrawn and immediately added onto nutrient agar plates. Colonies were counted after 24 hours incubation at 37° C.

[2] = test system: Salmonella attachment to human buccal epithelial cells; settings: count on treated cell / untreated cell
Method: The Salmonella suspension and the human buccal epithelial cells were prepared according to the method described in the detachment experiments of Example 1, except that only the control buccal epithelial cells were suspended in PBS and washed twice at 4500 rpm for 10 minutes. […] The exposure of the buccal epithelial cells to the Salmonella suspension and all subsequent procedures were performed according to the method described in Example 1.

[3] = test system: Salmonella typhimurium TA100; experiment: Salmonella reversion assay, TA100
Method: (§1) Test strains TA98 and TA100 were obtained from Bruce N. Ames (University of California, Berkley, Calif.). Mutagenicities were determined both in the absence of and in the presence of a mammalian liver S9 activating system. S9 is the 9000×g supernatant prepared from liver homogenates from Aroclor 1254 stimulated male Sprague Dawley rats. The S9 was purchased from Molecular Toxicology, Inc. (Anapolis, Md.).
(§2) Bacterial broth cultures were grown overnight at 37° with shaking in Oxoid Broth #2. For assays in the absence of S9, a 0.5 ml aliquot of 100 mM Sodium Phosphate Buffer, pH 7.4, was added to sterile 13×100 mm capped culture tubes. For assays in the presence of S9, a 0.5 ml aliquot of 10% S9 mix was added. The S9 mix consisted of 8 mM magnesium chloride, 33 mM potassium chloride, 5 mM glucose-6-phosphate, 4 mM NADP, 100 mM sodium phosphate, pH 7.4 and S9 in a concentration of approximately 1.46 mg protein/ml.
(§3) The culture tubes were placed in an ice bath and 0.1 ml of the bacterial suspension and 0.1 ml of a DMSO solution of the test compound were added. The mixture was vortexed gently and incubated at 37° for 20 minutes with shaking in a water bath. Molten top agar (2.0 ml) containing 0.5 mM histidine HCl and 0.5 mM biotin were added, and the mixture was vortexed gently and poured onto a minimal glucose plate. After allowing the agar to solidify, the plates were inverted and placed in a 37° incubator in the dark for 48 hours. The revertant (mutant) colonies were counted and the background lawn was examined on all plates. A response that was two times that of the DMSO solvent control was considered a positive response.

[4] = test system: Salmonella typhimurium ATCC 14028; experiment: Effect on viability of Salmonella in suspension (Tables D-1 to D-3); format: cell-based; settings: Table D-1
Outline: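 Bactericidal activity against Salmonella measured in suspension; EC50 derived by nonlinear regression of kill versus molar concentration. Na2-EDTA and EGTA dissolved and diluted in 0.04 M PPB; EGTA heated 15 minutes at 80° C., adjusted to pH 7.0 with NaOH, filter-sterilized.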

[5] = test system: Salmonella typhimurium TA98; experiment: Salmonella reversion assay, TA98
Method: as §1, §2, §3

[6] = test system: Salmonella typhimurium on chicken skin; experiment: Prevention of attachment of Salmonella on excised chicken skin (Table F5)
Method: To determine the ability of surfactants to inhibit attachment or produce detachment of Salmonella, the following experiment was conducted. A hole was bored into the bottom of a 150 ml specimen cup. Chicken skin was excised from a drum stick and then placed over the cap of the specimen cup, and then the cap was screwed on. S. typhimurium was diluted 1:5000 with PBS or a surfactant. The surfactants were diluted appropriately. The skin was then inoculated with the solution containing the S. typhimurium and the surfactant for 30 minutes at room temperature.
Following incubation, the skin was washed. The rinse water was diluted appropriately in PBS and then plated onto XLD pour plates. The S. typhimurium was counted and reported as CFU/ml. The skin was swabbed so as to remove any remaining S. typhimurium using a nitroellulose lift and the CFU's/ml on the lift were also counted.

[7] = test system: Salmonella typhimurium TA100; experiment: Salmonella reversion assay after heating at 205° C., TA100; format: cell-based; settings: for Revertants/plate: heated at 205° C.
Method: Test strains TA98 and TA100 were used. Again, mutagenicities were determined both in the absence and in the presence of the mammalian liver S9 activating system.
A response that was two times that of the solvent control was considered a positive response.

SMILES: CCCCCCCCCCCCCCCC[n+]1ccccc1 [CPC, cetylpyridinium chloride]
- bacterial viability ([1]; CPC 10 ug/ml + 0.0625% Na2-EDTA): 6.21 ± 0.75 × 10^8 CFU/ml
- bacterial viability ([1]; CPC 10 ug/ml + 0.125% Na2-EDTA): 6.24 ± 0.79 × 10^8 CFU/ml
- bacterial viability ([1]; CPC 10 ug/ml + 0.5% Na2-EDTA): 5.79 ± 0.1 × 10^8 CFU/ml
- bacterial viability ([1]; CPC 10 ug/ml, no chelating agent): 6.08 ± 0.6 × 10^8 CFU/ml
- bacterial viability ([1]; CPC 17 ug/ml + 0.125% Na2-EDTA): 1.52 ± 0.42 × 10^7 CFU/ml
- bacterial viability ([1]; CPC 17 ug/ml + 0.5% Na2-EDTA): 4.8 ± 0.42 × 10^6 CFU/ml
- bacterial viability ([1]; CPC 17 ug/ml, no chelating agent): 7.25 ± 0.1 × 10^7 CFU/ml
- bacterial viability ([1]; CPC 20 ug/ml + 0.25% EGTA): 3.01 ± 0.44 CFU/ml
- bacterial viability ([1]; CPC 20 ug/ml + 1% EGTA): 2.64 ± 0.32 CFU/ml
- bacterial viability ([1]; CPC 30 ug/ml + 0.25% EGTA): 85 ± 65 CFU/ml
- bacterial viability ([1]; CPC 30 ug/ml + 0.25% Na2-EDTA): 20 ± 13 CFU/ml
- bacterial viability ([1]; CPC 30 ug/ml, no chelating agent): 117 ± 189 CFU/ml and 82 ± 73 CFU/ml
- bacterial viability ([1]; CPC 40 ug/ml + 1% EGTA): 0 CFU/ml
- bacterial viability ([1]; CPC 40 ug/ml, no chelating agent): 8 ± 14 CFU/ml
- decrease in cell viability ([1]; CPC and Na2-EDTA used together): 2.5 fold
- log reduction at 20 µg/mL ([1]; Salmonella enterica, read-out: decrease in CFU/ml): 1.5
- Counts/con ([2]; 2.5 mcg/mL): 62/71
- Counts/con ([2]; 5 mcg/mL): 41/71
- Counts/con ([2]; 10 mcg/mL): 26/70 and 24/74
- Counts/con ([2]; 100 mcg/mL): 30/70 and 23/74
- Revertants/plate ([3]; TA100, +S9, 5 μg/plate): 129 ± 14 Revertants/plate
- Revertants/plate ([3]; TA100, +S9, 10 μg/plate): 136 ± 11 Revertants/plate
- Revertants/plate ([3]; TA100, +S9, 20 μg/plate): 126 ± 14 Revertants/plate
- Revertants/plate ([3]; TA100, +S9, 40 μg/plate): 125 ± 5 Revertants/plate
- Revertants/plate ([3]; TA100, +S9, 50 μg/plate): 126 ± 10 Revertants/plate
- Revertants/plate ([3]; TA100, -S9, 1 μg/plate): 98 ± 5 Revertants/plate
- Revertants/plate ([3]; TA100, -S9, 5 μg/plate): 133 ± 5 Revertants/plate
- Revertants/plate ([3]; TA100, -S9, 10 μg/plate): 130 ± 9 Revertants/plate
- mutagenicity (in words) ([3]; TA100, absence of S9, low concentrations): nonmutagenic
- mutagenicity and cytotoxicity (in words) ([3]; TA100, presence of S9): neither mutagenic nor cytotoxic
- bacterial viability ([4]; 20 ug/ml): 1.84 ± 0.087 × 10^8 CFU/ml
- bacterial viability ([4]; 22.5 ug/ml): 9.07 ± 2.16 × 10^7 CFU/ml
- bacterial viability ([4]; 25 ug/ml): 5.15 ± 1.18 × 10^6 CFU/ml
- Revertants/plate ([5]; TA98, +S9, 1 μg/plate): 25 ± 2 Revertants/plate
- Revertants/plate ([5]; TA98, +S9, 5 μg/plate): 28 ± 1 Revertants/plate
- Revertants/plate ([5]; TA98, +S9, 10 μg/plate): 25 ± 3 Revertants/plate
- Revertants/plate ([5]; TA98, +S9, 20 μg/plate): 28 ± 2 Revertants/plate
- Revertants/plate ([5]; TA98, +S9, 40 μg/plate): 30 ± 1 Revertants/plate
- Revertants/plate ([5]; TA98, +S9, 50 μg/plate): 35 ± 6 Revertants/plate
- Revertants/plate ([5]; TA98, -S9, 1 μg/plate): 24 ± 3 Revertants/plate
- Revertants/plate ([5]; TA98, -S9, 5 μg/plate): 18 ± 4 Revertants/plate
- mutagenicity (in words) ([5]; TA98, absence of S9, low concentrations): nonmutagenic
- mutagenicity and cytotoxicity (in words) ([5]; TA98, presence of S9): neither mutagenic nor cytotoxic
- CFU/ml on XLD agar [6]: 20
- Nitrocellulose lift (# of colonies) ([6]; skin, 30 minutes at room temperature): 4 # of colonies
- Revertants/plate ([7]; TA100, +S9, 0.1 μg/plate): 122 ± 3 Revertants/plate
- Revertants/plate ([7]; TA100, +S9, 1.0 μg/plate): 126 ± 14 Revertants/plate
- Revertants/plate ([7]; TA100, +S9, 5.0 μg/plate): 118 ± 10 Revertants/plate
- Revertants/plate ([7]; TA100, +S9, 10.0 μg/plate): 123 ± 8 Revertants/plate
- Revertants/plate ([7]; TA100, -S9, 0.1 μg/plate): 117 ± 6 Revertants/plate
- Revertants/plate ([7]; TA100, -S9, 1.0 μg/plate): 113 ± 8 Revertants/plate
- Revertants/plate ([7]; TA100, -S9, 5.0 μg/plate): 123 ± 4 Revertants/plate
- Revertants/plate ([7]; TA100, -S9, 10.0 μg/plate): 126 ± 4 Revertants/plate
- mutagenicity after heating in vegetable oil (in words) ([7]; TA100, absence or presence of S9, all concentrations tested): did not produce substances which are mutagenic
